Assay results reported in patent US20040224979A1, “Treating obesity with selective androgen receptor modulators” (priority 2002, published 2004).

Experiments:
leptin = assay: Serum leptin levels in intact male rats (ELISA) after SARM treatment by osmotic pump; conditions: for Leptin, percent of control / Normalized Leptin, percent of control: control = 100%; for Normalized Leptin: serum leptin normalized to body weight; for Leptin: serum, intact male rats, 500 μg/day s.c. osmotic pump
Method: All doses were delivered by subcutaneous placement of Alzet osmotic pumps.
Seven, 14 and 28 days after pump implantation, animals were exsanguinated under ketamine/xylazine anesthesia. Serum was collected, separated into 10 aliquots and stored at −80° C.
Serum concentrations of testosterone (T), leptin, Insulin and IGF-1 were determined by commercially available ELISA kits.

[1] = Organ weights in intact male rats (tissue-selective anabolic activity); format: in vivo, Sprague-Dawley rats; conditions: 500 μg/day
androgen receptor (AR) = assay: In vitro androgen receptor binding affinity
[2] = Whole body DEXA body composition (lean body mass, body fat) in ovariectomized female rats; format: in vivo, Sprague-Dawley rats; conditions: 3 mg/day s.c., 90 day time point
Method: Two hundred and thirty (230) female Sprague-Dawley rats (23 weeks of age) were used in these studies.
Animals were randomized (n=10 per group) into each of the treatment groups outlined in Table 2 below. Animals assigned to groups 6 through 23 were ovariectomized on day 0 of the experiment.
Drug administration with Compound VI, bicalutamide (an antiandrogen), and/or DHT commenced on day 0 or 90 with the compound of interest administered via daily subcutaneous injection (0.20 mL) and continued until day 120 or 210 of the study. Drug solutions were prepared daily by dissolving in DMSO and dilution with PEG 300. The percentage of DMSO was the same in all vehicles (17.6%), as determined based on the solubility of the test compounds.
Whole body DEXA images were collected up to 120 or 210 days after ovariectomy, as described in Table 2. Lean body mass (LBM), fat mass (FM) and total body mass (TBM) were determined at each time point.

Structure (SMILES)	decrease of serum leptin levels compared with the vehicle control (leptin; 2 w) [%]	decrease of serum leptin levels compared with the vehicle control (leptin; 4 w) [%]	Leptin, percent of control (leptin; 1 w)	Normalized Leptin, percent of control (leptin; 1 w)	Leptin, percent of control (leptin; 2 w)	Normalized Leptin, percent of control (leptin; 2 w)	Leptin, percent of control (leptin; 4 w)	Normalized Leptin, percent of control (leptin; 4 w)	Normalized Leptin (leptin; 1 w)	Normalized Leptin (leptin; 2 w)	Normalized Leptin (leptin; 4 w)	Leptin (leptin; 1 w) [ng/mL]	Leptin (leptin; 2 w) [ng/mL]	Leptin (leptin; 4 w) [ng/mL]	changes in organ weight [1]	in vitro androgen receptor (AR) binding affinity (androgen receptor (AR))	decrease in body fat as compared to the ovariectomized (OVX) control group [2] [%]	increase in lean mass as compared to the ovariectomized (OVX) control group [2] [%]
C[C@](O)(COc1ccc(F)cc1)C(=O)Nc1ccc([N+](=O)[O-])c(C(F)(F)F)c1 [Compound VII]	36	22	(84%)	(81%)	(64%)	(63%)	(77%)	(78%)	5.80 ± 1.73 (pg/ml)/BW (g)	5.47 ± 1.03 (pg/ml)/BW (g)	13.82 ± 1.17 (pg/ml)/BW (g)	1.45 ± 0.47	1.68 ± 0.29	4.89 ± 0.61	tissue-selective anabolic activity	–	–	–
CC(=O)Nc1ccc(OC[C@](C)(O)C(=O)Nc2ccc([N+](=O)[O-])c(C(F)(F)F)c2)cc1 [Compound VI]	–	–	(96%)	(93%)	(107%)	(104%)	(104%)	(105%)	6.65 ± 1.07 (pg/ml)/BW (g)	8.99 ± 0.99 (pg/ml)/BW (g)	18.7 ± 4.2 (pg/ml)/BW (g)	1.71 ± 0.31	2.81 ± 0.29	6.62 ± 1.12	tissue-selective anabolic activity	high	3.6	9
CCC(=O)O[C@H]1CC[C@H]2[C@@H]3CCC4=CC(=O)CC[C@]4(C)[C@H]3CC[C@]12C [TP, testosterone propionate, reference compound]	–	–	(102%)	(93%)	(84%)	(92%)	(92%)	(90%)	6.67 ± 1.96 (pg/ml)/BW (g)	7.04 ± 1.97 (pg/ml)/BW (g)	16.0 ± 1.7 (pg/ml)/BW (g)	1.74 ± 0.53	2.19 ± 0.67	5.89 ± 0.77	–	–	–	–
